Experimental findings from EP0831835B1, “TREATING ANOREXIA” (ELI LILLY AND COMPANY, priority 1995, dated 1996) are described below.

In one data set the target is T1, 5-HT1C receptor (Homo sapiens, UniProt P28335).
T1 sequence (P28335 33-458): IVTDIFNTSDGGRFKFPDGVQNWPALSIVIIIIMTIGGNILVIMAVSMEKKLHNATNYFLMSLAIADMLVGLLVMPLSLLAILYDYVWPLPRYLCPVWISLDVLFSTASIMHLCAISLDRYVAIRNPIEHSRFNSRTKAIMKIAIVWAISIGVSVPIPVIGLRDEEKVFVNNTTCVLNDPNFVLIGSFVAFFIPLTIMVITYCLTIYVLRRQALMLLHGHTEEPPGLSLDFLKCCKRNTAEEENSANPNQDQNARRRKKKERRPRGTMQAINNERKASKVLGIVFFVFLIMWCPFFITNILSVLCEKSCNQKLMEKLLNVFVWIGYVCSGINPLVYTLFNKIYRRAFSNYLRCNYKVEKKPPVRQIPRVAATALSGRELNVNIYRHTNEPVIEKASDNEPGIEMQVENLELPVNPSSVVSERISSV
The data set can be described thus: pharmacological studies, activity at 5-HT1C receptor.

A further data set deals with rodents. The data set can be described thus: animal studies in rodents (food intake / weight). The format is in vivo, Male Sprague Dawley CD rats. As to conditions: many such animals. On the procedure:
Male Sprague Dawley CD rats (Charles River, Wilmington, Mass.) are individually housed in cages with ad libitum access to Animal Chow and tap water. Temperature is maintained at approximately 21° C. Rats are adapted to vivarium conditions for at least a week before tests begin.
At the start of the experiments, the rats are weighed. […] Tests are conducted every 3-4 days. Food intake (± 0.1 g) is recorded hourly for the 5 h after intubation and after 24 h.

In a further data set the test system is dogs. Nature of the data set: animal studies in dogs (weight). The format is in vivo.
The next data set deals with human patients. Nature of the data set: double-blind multicenter clinical trial versus placebo. Format: in vivo. To be noted: human patients randomized to compound or placebo.
A further data set concerns human subjects. The data set can be described thus: double blind multicenter clinical trial versus haloperidol. As to conditions: 1,996 human subjects, 5-20 mg/day, 6 weeks. The format is in vivo. An excerpt:
Another double blind multicenter clinical trial was completed using 1,996 human subjects. […] The study continued for 6 weeks, with possible extensions.

The nature of data set [1]: detection of radiolabelled compound in saliva. Format: in vivo. On the procedure: For example, in the treatment of adult humans, dosages of from about 0.25 to 50 mg, preferably from 1 to 30 mg, and most preferably 1 to 20 mg per day may be used. A once a day dosage is normally sufficient, although divided doses may be administered. For treatment of cognitive dysfunction, a dose range of from 1 to 30 mg, preferably 1 to 20 mg per day is suitable.

For data set [2], the system named is muscarinic cholinergic receptor. To be noted: results of pharmacological studies.

For `Cc1cc2c(s1)Nc1ccccc1N=C2N1CCN(C)CC1` [2-methyl-4-(4-methyl-1-piperazinyl)-10H-thieno[2,3-b][1,5]benzodiazepine], the “activity at the 5-HT1C receptor” value at 5-HT1C receptor is given as “active”. Moreover, the weight change entry in the data set with rodents and in the data set with dogs (many such animals) was “lost weight” throughout. Besides, in the data set on dogs, the “effectiveness for treatment of clinically significant decrease in appetite” value is reported as “would not be effective”. The “usefulness for the treatment of anorexia” value in the data set with human patients was “can be useful for the treatment of anorexia”. Further, the appetite result in the data set on human subjects is on record as “increase in appetite”. In addition, the weight gain result in the data set on human subjects is recorded as “statistically significant dose dependent weight gain”. For the same molecule, in data set [1], the detection in saliva entry is recorded as “can be detected in the saliva”. Also, in data set [2], the “muscarinic cholinergic receptor activity” value is “has muscarinic cholinergic receptor activity”.
